According to ChEMBL document CHEMBL1122407, “Synthesis and biological activity of various 3'-azido and 3'-amino analogues of 5-substituted pyrimidine deoxyribonucleosides” (1983):
“And” between values parts separate entries of the source, which are not always exact repeats. Equal entries are not always repeated. The source made the active and inactive calls. The calls are words filed in the database; no cut-off is given here.

Assays:
[1] = target: Deoxycytidine kinase (Mus musculus) (UniProt P43346); assay: Inhibitory activity against deoxycytidine kinase from L1210 cells; format: cell-based; design: concentration or dose not given beside the values; scale not given: the % may be the effect or the level left
Chain of Deoxycytidine kinase (Mus musculus) (P43346 whole entry, looked up): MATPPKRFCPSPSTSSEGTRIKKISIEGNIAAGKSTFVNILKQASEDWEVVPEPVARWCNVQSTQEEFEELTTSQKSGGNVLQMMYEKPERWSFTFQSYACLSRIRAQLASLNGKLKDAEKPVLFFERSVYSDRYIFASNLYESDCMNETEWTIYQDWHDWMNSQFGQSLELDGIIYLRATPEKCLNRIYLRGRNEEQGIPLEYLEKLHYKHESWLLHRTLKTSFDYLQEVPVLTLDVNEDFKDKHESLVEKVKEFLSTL

[2] = test system: L1210; assay: In vitro inhibition against replication of L1210 murine cells; format: functional; conditions: Mus musculus, read-out: ED50 (the source's name)
[3] = test system: Sarcoma-180; assay: In vitro inhibition against replication of Sarcoma-80 cells; format: functional; conditions: Mus musculus, read-out: ED50 (the source's name)
[4] = target: T1, Thymidine kinase, cytosolic (Mus musculus) (UniProt P04184); assay: Inhibitory activity against thymidine kinase (TK) from L1210 cells; format: cell-based; design: concentration or dose not given beside the values
T1 sequence (whole entry): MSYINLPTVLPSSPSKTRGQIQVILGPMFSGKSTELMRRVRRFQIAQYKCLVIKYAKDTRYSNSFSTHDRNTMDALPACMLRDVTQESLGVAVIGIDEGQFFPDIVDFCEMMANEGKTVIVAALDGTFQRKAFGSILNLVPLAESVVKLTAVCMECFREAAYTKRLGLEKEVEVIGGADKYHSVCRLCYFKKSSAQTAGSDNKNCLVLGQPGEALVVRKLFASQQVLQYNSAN

[5] = test system: L1210; assay: In vitro inhibition against replication of L1210 murine cells; inactive; format: functional, cell-based; conditions: Mus musculus
[6] = test system: Sarcoma-180; assay: In vitro inhibition against replication of […] cells; inactive; format: functional, cell-based; conditions: Mus musculus

| SMILES | Activity [1] | EC50 [2] | EC50 [3] | Activity [4] | ED50 [5] | ED50 [6] |
| --- | --- | --- | --- | --- | --- | --- |
| N[C@@H]1C[C@H](n2cc(F)c(=O)[nH]c2=O)O[C@@H]1CO | 93% | 15 µM | 1 µM | 92% and 82% | – | – |
| N[C@H]1C[C@H](n2ccc(=O)[nH]c2=O)O[C@@H]1CO | 97% and 94% | 18 µM | 50 µM | – | – | – |
| [N-]=[N+]=N[C@H]1C[C@H](n2cc(F)c(N)nc2=O)O[C@@H]1CO | 70% and 61% | 25 µM | – | 88% and 103% | – | – |
| [N-]=[N+]=N[C@H]1C[C@H](n2ccc(N)nc2=O)O[C@@H]1CO | 86% and 78% | – | – | 85% and 72% | inactive | inactive |
| Cc1cn([C@H]2C[C@H](N=[N+]=[N-])[C@@H](CO)O2)c(=O)nc1N | 62% and 55% | – | – | 92% and 81% | inactive | inactive |
| Cc1cn([C@H]2C[C@@H](N)[C@@H](CF)O2)c(=O)[nH]c1=O | 91% and 88% | – | – | 89% and 83% | inactive | inactive |
| O=c1[nH]c(=O)n([C@H]2C[C@H](O)[C@@H](CO)O2)cc1I | 87% and 97% | – | – | – | – | – |
| Cc1cn([C@H]2C[C@@H](N)[C@@H](CO)O2)c(=O)nc1N | 90% and 82% | 25 µM | 20 µM | 93% and 80% | – | – |
| N[C@@H]1C[C@H](n2cc(I)c(=O)[nH]c2=O)O[C@@H]1CO | 87% and 91% | 400 µM | – | 95% and 71% | – | – |
| N[C@@H]1C[C@H](n2cc(C(F)(F)F)c(=O)[nH]c2=O)O[C@@H]1CO | 101% and 87% | 150 µM | 100 µM | 81% and 61% | – | – |
| Nc1ccn([C@H]2C[C@H](N)[C@@H](CO)O2)c(=O)n1 | 89% and 85% | 0.7 µM | 4 µM | 77% and 84% | – | – |
| Nc1nc(=O)n([C@H]2C[C@@H](N)[C@@H](CO)O2)cc1F | 82% and 73% | 10 µM | 1 µM | 81% and 70% | – | – |
| O=c1ccn([C@H]2C[C@H](O)[C@@H](CO)O2)c(=O)[nH]1 | 88% and 92% | – | – | – | – | – |

The next lines start with results.

| Activity [1] | EC50 [2] | EC50 [3] | Activity [4] | SMILES | ED50 [5] | ED50 [6] |
| --- | --- | --- | --- | --- | --- | --- |
| 92% | – | – | – | [N-]=[N+]=N[C@H]1C[C@H](n2ccc(=O)[nH]c2=O)O[C@@H]1CO | inactive | inactive |
| 96% and 87% | – | – | 95% and 72% | Cc1cn([C@H]2C[C@H](N)[C@@H](CO)O2)c(=O)[nH]c1=O | – | – |
| 89% and 84% | – | – | – | Cc1cn([C@H]2C[C@H](N=[N+]=[N-])[C@@H](CO)O2)c(=O)[nH]c1=O | – | – |
| 93% and 89% | – | – | 93% and 95% | Cc1cn([C@H]2C[C@@H](N=[N+]=[N-])[C@@H](CF)O2)c(=O)[nH]c1=O | inactive | inactive |
| 91% and 85% | 400 µM | 100 µM | – | [N-]=[N+]=N[C@H]1C[C@H](n2cc(C(F)(F)F)c(=O)[nH]c2=O)O[C@@H]1CO | – | – |
| 94% and 89% | 20 µM | 40 µM | 78% and 71% | [N-]=[N+]=N[C@H]1C[C@H](n2cc(F)c(=O)[nH]c2=O)O[C@@H]1CO | – | – |
